Experimental data taken from ChEMBL document CHEMBL4376892, “Identification of Parthenolide Dimers as Activators of Pyruvate Kinase M2 in Xenografts of Glioblastoma Multiforme in Vivo” (J Med Chem, 2020).
Calls of active or inactive are those of the source. No cut-off for these calls is given here.

Experiments:
[1] = tested on: U-118-MG; assay: Induction of apoptosis in human U118MG cells assessed as necrotic cells after 48 hrs by Annexin-V-FITC/PI-staining based flow cytometric analysis (reference value: 1.37%); format: functional
[2] = tested on: U-87 MG; assay: Induction of apoptosis in human U87 cells assessed as early apoptotic cells after 48 hrs by Annexin-V-FITC/PI-staining based flow cytometric analysis (reference value: 4.91%); format: functional, U-87MG ATCC
[3] = tested on: U-118-MG; assay: Antiproliferative activity against human U118MG cells assessed as reduction in cell viability after 72 hrs by MTT assay; format: functional, cell-based
[4] = tested on: U-118-MG; assay: Induction of apoptosis in human U118MG cells transfected with lentivirus expressing shPKM2 assessed as necrotic cells after 48 hrs by Annexin-V-FITC/PI-staining based flow cytometric analysis (reference value: 0.105%); format: functional
[5] = molecular target: T1, Pyruvate kinase PKM (Homo sapiens, UniProt P14618); assay: Activation of PKM2 in human U87 cells assessed as reduction in bcl-xl expression at 1 to 2 uM after 48 hrs by Western blot analysis; format: cell-based; details: U-87MG ATCC
T1 sequence (P14618 2-531 limits assumed): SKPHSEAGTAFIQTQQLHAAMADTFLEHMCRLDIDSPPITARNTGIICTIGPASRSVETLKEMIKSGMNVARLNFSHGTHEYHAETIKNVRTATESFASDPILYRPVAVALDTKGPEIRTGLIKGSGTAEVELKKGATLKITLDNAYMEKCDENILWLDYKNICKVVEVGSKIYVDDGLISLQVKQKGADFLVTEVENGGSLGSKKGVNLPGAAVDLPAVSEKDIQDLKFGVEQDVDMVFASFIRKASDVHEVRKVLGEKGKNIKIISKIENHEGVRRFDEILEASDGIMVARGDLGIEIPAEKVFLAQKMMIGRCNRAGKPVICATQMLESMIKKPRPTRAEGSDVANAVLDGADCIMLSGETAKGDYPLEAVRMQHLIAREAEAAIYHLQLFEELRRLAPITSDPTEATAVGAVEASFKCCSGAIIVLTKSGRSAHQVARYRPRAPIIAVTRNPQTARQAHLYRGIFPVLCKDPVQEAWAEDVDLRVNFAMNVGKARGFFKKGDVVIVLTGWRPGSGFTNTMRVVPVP

[6] = tested on: U-118-MG; assay: Effect on total PKM2 protein expression in human U118MG cells at 0.5 to 2 uM after 48 hrs by Western blot analysis; format: functional, cell-based
[7] = molecular target: T1, Pyruvate kinase PKM; assay: Activation of PKM2 in human U118MG cells assessed as increase in E-cadherin expression at 1 to 2 uM after 24 hrs by Western blot analysis; format: cell-based
[8] = molecular target: T1, Pyruvate kinase PKM; assay: Activation of PKM2 in human U118MG cells assessed as reduction in bcl2 expression at 1 to 2 uM after 48 hrs by Western blot analysis; format: cell-based
[9] = molecular target: T1, Pyruvate kinase PKM; assay: Activation of recombinant human N-terminal 6His-tagged PKM2 expressed in Escherichia coli BL21 cells at 10 uM after 30 mins by fluorescence based analysis relative to control
[10] = molecular target: T1, Pyruvate kinase PKM; assay: Binding affinity to recombinant human N-terminal 6His-tagged PKM2 expressed in Escherichia coli BL21 cells assessed as increase in thermal stability of enzyme at melting temperature of 42 to 56 degC at 10 to 50 uM by western blot analysis
[11] = tested on: U-87 MG; assay: Antiinvasive activity against human U87 cells transfected with lentivirus expressing shPKM2 at 2 uM incubated for 48 hrs by crystal violet staining based transwell assay; format: functional, cell-based; details: U-87MG ATCC
[12] = Antiproliferative activity against human SHG44 cells assessed as reduction in cell viability after 72 hrs by MTT assay; format: functional, cell-based; details: SHG-44, 72 h
[13] = molecular target: T1, Pyruvate kinase PKM; assay: Induction of tetrameric formation of recombinant human N-terminal 6His-tagged PKM2 expressed in Escherichia coli BL21 cells assessed as increase in particle size at 10 uM after 30 mins by dynamic laser light scattering analysis
[14] = tested on: U-87 MG; assay: Antiproliferative activity against human U87 cells transfected with lentivirus expressing shNC assessed as reduction in cell viability after 24 hrs by MTT assay; format: functional, cell-based, U-87MG ATCC
[15] = tested on: U-118-MG; assay: Antiproliferative activity against human U118MG cells transfected with lentivirus expressing shPKM2 assessed as as reduction in cell viability after 24 hrs by MTT assay; format: functional, cell-based
[16] = tested on: U-87 MG; assay: Induction of apoptosis in human U87 cells assessed as late apoptotic cells after 48 hrs by Annexin-V-FITC/PI-staining based flow cytometric analysis (reference value: 1.22%); format: functional, U-87MG ATCC
[17] = tested on: U-87 MG; assay: Antimigratory activity against human U87 cells transfected with lentivirus expressing shPKM2 at 2 uM incubated for 48 hrs by crystal violet staining based transwell assay; format: functional, cell-based; details: U-87MG ATCC
[18] = tested on: U-118-MG; assay: Effect on IKK-beta protein expression in human U118MG cells at 0.2 to 0.5 uM after 48 hrs by Western blot analysis; format: functional, cell-based
[19] = tested on: U-87 MG; assay: Induction of apoptosis in human U87 cells transfected with lentivirus expressing shNC assessed as late apoptotic cells after 48 hrs by Annexin-V-FITC/PI-staining based flow cytometric analysis (reference value: 0.608%); format: functional, U-87MG ATCC
[20] = molecular target: T1, Pyruvate kinase PKM; assay: Inhibition of PKM2 dimer nuclear translocation in human U118MG cells assessed as reduction in PKM2 accumulation in nucleus at 0.5 to 1 uM after 48 hrs by Western blot analysis; format: cell-based
[21] = tested on: U-118-MG; assay: Induction of apoptosis in human U118MG cells assessed as late apoptotic cells after 48 hrs by Annexin-V-FITC/PI-staining based flow cytometric analysis (reference value: 0.616%); format: functional
[22] = tested on: U-87 MG; assay: Antimetastatic activity against human U87 cells assessed as reduction in cell migration at 2 uM after 24 hrs by crystal violet staining based transwell assay; format: functional; details: U-87MG ATCC
[23] = molecular target: T2, Inhibitor of nuclear factor kappa-B kinase subunit beta (Homo sapiens) (UniProt O14920); assay: Effect on IKKbeta phosphorylation in human U118MG cells at 0.2 to 0.5 uM after 48 hrs by Western blot analysis; format: cell-based
T2 sequence (whole entry): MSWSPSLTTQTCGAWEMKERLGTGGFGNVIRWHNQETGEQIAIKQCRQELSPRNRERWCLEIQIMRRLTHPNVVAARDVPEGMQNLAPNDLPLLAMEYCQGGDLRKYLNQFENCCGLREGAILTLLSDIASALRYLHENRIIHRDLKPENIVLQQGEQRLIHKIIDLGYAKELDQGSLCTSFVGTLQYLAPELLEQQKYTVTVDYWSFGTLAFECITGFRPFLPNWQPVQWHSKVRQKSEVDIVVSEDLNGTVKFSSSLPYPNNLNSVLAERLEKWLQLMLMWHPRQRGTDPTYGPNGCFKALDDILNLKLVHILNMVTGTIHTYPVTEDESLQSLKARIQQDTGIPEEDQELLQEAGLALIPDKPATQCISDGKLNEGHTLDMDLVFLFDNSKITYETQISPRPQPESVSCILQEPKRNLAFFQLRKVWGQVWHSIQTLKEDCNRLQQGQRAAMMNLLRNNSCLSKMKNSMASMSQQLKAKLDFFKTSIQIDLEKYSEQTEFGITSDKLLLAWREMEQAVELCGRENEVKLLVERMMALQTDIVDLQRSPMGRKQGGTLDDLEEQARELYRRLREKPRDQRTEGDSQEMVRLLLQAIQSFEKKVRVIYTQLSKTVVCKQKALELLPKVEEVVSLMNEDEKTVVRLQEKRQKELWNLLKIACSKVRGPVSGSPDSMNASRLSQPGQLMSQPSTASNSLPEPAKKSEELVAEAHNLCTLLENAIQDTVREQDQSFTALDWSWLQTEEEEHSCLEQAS

[24] = tested on: U-118-MG; assay: Induction of apoptosis in human U118MG cells transfected with lentivirus expressing shPKM2 assessed as late apoptotic cells after 48 hrs by Annexin-V-FITC/PI-staining based flow cytometric analysis (reference value: 0.221%); format: functional
[25] = molecular target: T1, Pyruvate kinase PKM; assay: Activation of PKM2 in human U87 cells assessed as increase in E-cadherin expression at 1 to 2 uM after 24 hrs by Western blot analysis; format: cell-based; details: U-87MG ATCC
[26] = molecular target: T1, Pyruvate kinase PKM; assay: Activation of PKM2 in human U87 cells assessed as inhibition of STAT3 protein expression at 1 to 2 uM after 24 hrs by Western blot analysis; format: cell-based; details: U-87MG ATCC
[27] = tested on: U-118-MG; assay: Induction of apoptosis in human U118MG cells transfected with lentivirus expressing shPKM2 assessed as early apoptotic cells after 48 hrs by Annexin-V-FITC/PI-staining based flow cytometric analysis (reference value: 2%); format: functional
[28] = tested on: NIH3T3; assay: Cytotoxicity against mouse 3T3 cells assessed as reduction in cell viability after 72 hrs by MTT assay; format: cell-based; details: NIH3T3, 72 h

In the case of `C=C1C(=O)O[C@H]2[C@H]1CC/C(C(=O)OCCOCCOC(=O)/C1=C/CC[C@@]3(C)O[C@H]3[C@H]3OC(=O)C(=C)[C@@H]3CC1)=C\CC[C@@]1(C)O[C@@H]21`, the Activity [1] is reported as 6.01%, the Activity [2] is reported as 24.4% and the IC50 [3] is reported as 1.8 µM. The Activity [4] was 0.09%, the Activity [5] was “Active” and the Activity [6] was “inactive”. For the same compound, the Activity [7] was “Active”, the Activity [8] was “Active” and the fold change (FC) [9] was over 2. The Activity [10] was “Active”, the Activity [11] was “inactive” and the IC50 [12] was 5.24 µM. The Activity [13] was “Active”, the IC50 [14] was 7.39 µM and the IC50 [15] was 1.98 µM. The Activity [16] was 2.82%, the Activity [17] was “inactive” and the Activity [18] was “inactive”. The Activity [19] was 3.62%, the inhibition [20] was “Active” and the Activity [21] was 42.1%. The Activity [22] was “Active”, the Activity [23] was “inactive” and the Activity [24] was 1.32%. For the same compound, the Activity [25] was “Active”, the Activity [26] was “Active” and the Activity [27] was 5.78%. The IC50 [28] was 7.93 µM.
